36 compounds from patent US7514443B2, “Substituted pyrazolo[1,5-a]pyrimidines as inhibitors of metabotropic glutamate receptors” (Hoffmann-La Roche Inc., priority 2003, dated 2009) can be followed below.

`Cc1cc(-c2cnn3c(C(F)(F)F)cc(-c4ccc(F)c(Cl)c4)nc23)cc(C)n1` [Example 4.21, 5-(3-Chloro-4-fluoro-phenyl)-3-(2,6-dimethyl-pyridin-4-yl)-7-trifluoromethyl-pyrazolo[1,5-a]pyrimidine]: the melting point turned out to be 271 °C. Under `Cc1cc(-c2cnn3c(C(F)(F)F)cc(-c4ccc(OCC(F)(F)F)c(C(F)(F)F)c4)nc23)ccn1` [Example 4.46, 5-[4-(2,2,2-Trifluoroethoxy)-3-trifluoromethyl-phenyl]-3-(2-methyl-pyridin-4-yl)-7-trifluoromethyl-pyrazolo[1,5-a]pyrimidine] stands 210 °C. With `COc1ccc(-c2cc(C(F)(F)F)n3cnc(C#N)c3n2)cc1` [Example 5.5, 2-(4-Methoxy-phenyl)-4-trifluoromethyl-imidazo[1,5-a]pyrimidine-8-carbonitrile], the melting point worked out at 192 °C. Under `Cc1cc(-c2cc(C(F)(F)F)n3ncc(-c4ccnc(CO)c4)c3n2)ccc1Cl` [Example 6.3, {4-[5-(4-Chloro-3-methyl-phenyl)-7-trifluoromethyl-pyrazolo[1,5-a]pyrimidin-3-yl]-pyridin-2-yl}-methanol] stands 220 °C; under `Cc1cc(-c2cnn3c(C(F)(F)F)cc(-c4ccc(C(F)(F)F)cc4)nc23)cc(C)n1` [Example 4.23, 5-(4-Trifluoromethyl-phenyl)-3-(2,6-dimethyl-pyridin-4-yl)-7-trifluoromethyl-pyrazolo[1,5-a]pyrimidine], 257 °C; under `Cc1nn2c(C(F)(F)F)cc(-c3ccc(F)c(Cl)c3)nc2c1C#N` [Example 2.4, 5-(3-Chloro-4-fluoro-phenyl)-2-methyl-7-trifluoromethyl-pyrazolo[1,5-a]pyrimidine-3-carbonitrile], 196 °C.

For `Fc1ccc(-c2cc(C(F)(F)F)n3ncc(-c4ccncc4)c3n2)cc1Cl` [Example 4.7, 5-(3-Chloro-4-fluoro-phenyl)-3-pyridin-4-yl-7-trifluoromethyl-pyrazolo[1,5-a]pyrimidine], the melting point stood at 265 °C. To `Cc1cc(-c2cc(C(F)(F)F)n3cnc(-c4cccnc4)c3n2)ccc1C(F)(F)F` [Example 8.8, 2-(3-Methyl-4-trifluoromethyl-phenyl)-8-pyridin-3-yl-4-trifluoromethyl-imidazo[1,5-a]pyrimidine] belongs 173 °C. To `Cc1cc(-c2ncn3c(C(F)(F)F)cc(-c4ccc(C(F)(F)F)cc4)nc23)ccn1` [Example 8.24, 8-(2-Methyl-pyridin-4-yl)-4-trifluoromethyl-2-(4-trifluoromethyl-phenyl)-imidazo[1,5-a]pyrimidine] belongs 257 °C; to `Cc1cc(-c2cc(C(F)(F)F)n3ncc(-c4ccnc(CO)c4)c3n2)ccc1C(F)(F)F` [Example 6.2, 5-(3-Methyl-4-trifluoromethyl-phenyl)-3-(2-hydroxymethyl-pyridin-4-yl)-7-trifluoromethyl-pyrazolo[1,5-a]pyrimidine], 231 °C; to `N#Cc1ncn2c(C(F)(F)F)cc(-c3ccc(Cl)cc3)nc12` [Example 5.2, 2-(4-Chloro-phenyl)-4-trifluoromethyl-imidazo[1,5-a]pyrimidine-8-carbonitrile], 205 °C. Under `CCOc1ccc(-c2cc(C(F)(F)F)n3ncc(-c4cccnc4)c3n2)cc1C(F)(F)F` [Example 4.40, 5-(4-Ethoxy-3-trifluoromethyl-phenyl)-3-pyridin-3-yl-7-trifluoromethyl-pyrazolo[1,5-a]pyrimidine] stands 178 °C; under `Cc1cc(-c2ncn3c(C(F)(F)F)cc(-c4ccc(C(F)(F)F)c(C)c4)nc23)ccn1` [Example 8.29, 2-(3-Methyl-4-trifluoromethyl-phenyl)-8-(2-methyl-pyridin-4-yl)-4-trifluoromethyl-imidazo[1,5-a]pyrimidine], 243 °C.

Compound `Cc1cc(-c2cnn3c(C(F)(F)F)cc(-c4ccc(C)c(C(F)(F)F)c4)nc23)cc(C)n1` [Example 4.28, 5-(4-Methyl-3-trifluoromethyl-phenyl)-3-(2,6-dimethyl-pyridin-4-yl)-7-trifluoromethyl-pyrazolo[1,5-a]pyrimidine] registered a melting point of 258 °C. To `N#Cc1cnn2c(C(F)(F)F)cc(-c3ccc(F)cc3)nc12` [Example 1.9, 5-(4-Fluoro-phenyl)-7-trifluoromethyl-pyrazolo[1,5-a]pyrimidine-3-carbonitrile] belongs 198 °C; to `Cc1cccc(-c2cc(C(F)(F)F)n3cnc(C#N)c3n2)c1` [Example 5.9, 2-(3-Methyl-phenyl)-4-trifluoromethyl-imidazo[1,5-a]pyrimidine-8-carbonitrile], 202 °C. Turning to `N#Cc1cnn2c(C(F)(F)F)cc(-c3ccccc3F)nc12` [Example 1.11, 5-(2-Fluoro-phenyl)-7-trifluoromethyl-pyrazolo[1,5-a]pyrimidine-3-carbonitrile], the melting point stood at 165 °C. To `N#Cc1cnn2c(C(F)(F)F)cc(-c3ccc(Cl)c(Cl)c3)nc12` [Example 1.16, 5-(3,4-Dichloro-phenyl)-7-trifluoromethyl-pyrazolo[1,5-a]pyrimidine-3-carbonitrile] belongs 206 °C. Under `N#Cc1ncn2c(C(F)(F)F)cc(-c3ccccc3)nc12` [Example 5.1, 2-Phenyl-4-trifluoromethyl-imidazo[1,5-a]pyrimidine-8-carbonitrile] stands 202 °C; under `Cc1cc(-c2cnn3c(C(F)(F)F)cc(-c4ccc(C(F)(F)F)c(F)c4)nc23)cc(C)n1` [Example 4.25, 5-(3-Fluoro-4-trifluoromethyl-phenyl)-3-(2,6-dimethyl-pyridin-4-yl)-7-trifluoromethyl-pyrazolo[1,5-a]pyrimidine], 245 °C.

For the compound `FC(F)(F)c1cc(-c2ccc(Br)cc2)nc2c(-c3ccncc3)cnn12` [Example 4.55, 5-(4-Bromo-phenyl)-3-pyridin-4-yl-7-trifluoromethyl-pyrazolo[1,5-a]pyrimidine], the melting point stood at 289 °C. Take `N#Cc1ncn2c(C(F)(F)F)cc(-c3ccc(C(F)(F)F)cc3)nc12` [Example 5.10, 2-(4-Trifluoromethyl-phenyl)-4-trifluoromethyl-imidazo[1,5-a]pyrimidine-8-carbonitrile]: the melting point came out at 236 °C. Under `FC(F)(F)COc1cc(-c2cc(C(F)(F)F)n3ncc(-c4ccncc4)c3n2)ccc1C(F)(F)F` [Example 4.50, 3-Pyridin-4-yl-5-[3-(2,2,2-trifluoro-ethoxy)-4-trifluoromethyl-phenyl]-7-trifluoromethyl-pyrazolo[1,5-a]pyrimidine] stands 251 °C.

In turn, `FC(F)c1cc(-c2ccc(C(F)(F)F)cc2)nc2c(-c3ccncc3)cnn12` [Example 9.1, 7-Difluoromethyl-3-pyridin-4-yl-5-(4-trifluoromethyl-phenyl)-pyrazolo[1,5-a]pyrimidine] came in with a melting point of 222 °C. To `FC(F)(F)c1cc(-c2ccc(Cl)cc2)nc2c(-c3cccnc3)ncn12` [Example 8.2, 2-(4-Chloro-phenyl)-8-pyridin-3-yl-4-trifluoromethyl-imidazo[1,5-a]pyrimidine] belongs 206 °C; to `N#Cc1cnn2c(C(F)(F)F)cc(-c3ccncc3)nc12` [Example 1.22, 5-Pyridin-4-yl-7-trifluoromethyl-pyrazolo[1,5-a]pyrimidine-3-carbonitrile], 233 °C. Under `N#Cc1ncn2c(C(F)(F)F)cc(-c3ccc(Cl)cc3Cl)nc12` [Example 5.7, 2-(2,4-Dichloro-phenyl)-4-trifluoromethyl-imidazo[1,5-a]pyrimidine-8-carbonitrile] stands 139 °C. Under `CCOc1cc(-c2cc(C(F)(F)F)n3ncc(-c4ccnc(C)c4)c3n2)ccc1C(F)(F)F` [Example 4.49, 5-(3-Ethoxy-4-trifluoromethyl-phenyl)-3-(2-methyl-pyridin-4-yl)-7-trifluoromethyl-pyrazolo[1,5-a]pyrimidine] stands 226 °C; under `N#Cc1ncn2c(C(F)(F)F)cc(-c3cccnc3)nc12` [Example 5.26, 2-Pyridin-3-yl-4-trifluoromethyl-imidazo[1,5-a]pyrimidine-8-carbonitrile], 222 °C. Consider `Cc1nn2c(C(F)(F)F)cc(-c3ccc(C(F)(F)F)cc3)nc2c1C#N` [Example 2.1, 2-Methyl-5-(4-trifluoromethyl-phenyl)-7-trifluoromethyl-pyrazolo[1,5-a]pyrimidine-3-carbonitrile], for which the melting point was 184 °C. Under `FC(F)(F)COc1ccc(-c2cc(C(F)(F)F)n3ncc(-c4cccnc4)c3n2)cc1C(F)(F)F` [Example 4.42, 5-(4-Trifluoroethoxy-3-trifluoromethyl-phenyl)-3-pyridin-3-yl-7-trifluoromethyl-pyrazolo[1,5-a]pyrimidine] stands 181 °C; under `Cc1cc(-c2cc(C(F)(F)F)n3ncc(-c4cccnc4)c3n2)ccc1C(F)(F)F` [Example 4.36, 5-(3-Methyl-4-trifluoromethyl-phenyl)-3-pyridin-3-yl-7-trifluoromethyl-pyrazolo[1,5-a]pyrimidine], 177 °C. To `Cc1cc(-c2cc(C(F)(F)F)n3ncc(-c4ccncc4)c3n2)ccc1Cl` [Example 4.4, 5-(4-Chloro-3-methyl-phenyl)-3-pyridin-4-yl-7-trifluoromethyl-pyrazolo[1,5-a]pyrimidine] belongs 247 °C.

With `Cc1cc(-c2cnn3c(C(F)(F)F)cc(-c4ccc(Cl)c(Cl)c4)nc23)cc(C)n1` [Example 4.22, 5-(3,4-Dichloro-phenyl)-3-(2,6-dimethyl-pyridin-4-yl)-7-trifluoromethyl-pyrazolo[1,5-a]pyrimidine], the melting point was 281 °C.

Take `Cc1cc(-c2cnn3c(C(F)(F)F)cc(-c4ccc(C(F)(F)F)c(OCC(F)(F)F)c4)nc23)cc(C)n1` [Example 4.51, 3-(2,6-Dimethyl-pyridin-4-yl)-5-[3-(2,2,2-trifluoro-ethoxy)-4-trifluoromethyl-phenyl]-7-trifluoromethyl-pyrazolo[1,5-a]pyrimidine]: the melting point is 245 °C. Under `FC(F)(F)c1cc(-c2ccc(Cl)cc2)nc2c(-c3ccncc3)cnn12` [Example 4.2, 5-(4-Chloro-phenyl)-3-pyridin-4-yl-7-trifluoromethyl-pyrazolo[1,5-a]pyrimidine] stands 274 °C.

One may read the melting point as the temperature, or range, at which the solid turns liquid.
